This is an account of results in article PMC4440778, “Structure-Activity Relationship and Mode of Action of a Frog Secreted Antibacterial Peptide B1CTcu5 Using Synthetically and Modularly Modified or Deleted (SMMD) Peptides” (PLoS ONE, 2015).

≈ marks a conversion by molar mass, not a printed value. Where a SMILES comes first, the peptide text is derived from it. Bridges are numbered along the chain shown (N, C = ends). Where no end group is shown, it is not given here. [ ]: non-standard residue; d: D form. The star is where a group is joined. Acm = CC(=O)NC*

One data set concerns skin cancer cells (A431). The class given is cell-based, human. How it is done: (§1) Cytotoxicity of the peptides against human embryonic kidney (HEK) cells, skin cancer cells (A431) and PBMCs were evaluated by 3-[4, 5-dimethylthiazol-2-yl]-2, 5-diphenyl tetrazolium bromide (MTT) assay. Peptide solution prepared in less than 0.2% DMSO (10–100 μg/ml) was treated with initially seeded 10,000 cells per well for HEK and A431 cells. To assess peptide cytotoxicity in PBMCs, MTT assay was performed by adding different concentrations of the respective peptides to 96 well plate containing 40,000 PBMCs per well, in triplicate. The conversion of MTT into […] was determined by measuring the absorbance at 570 nm.

Another data set relates to PBMCs. Format: cell-based, human. The protocol:
Peripheral blood mononuclear cells (PBMCs) were isolated from heparanised blood of healthy individuals. Five milliliter of blood was diluted with PBS (pH 7.4), and layered above 5 ml of histopaque and centrifuged at 1200 rpm for 30 min at room temperature. The upper layer was discarded, and the interphase containing PBMCs were carefully withdrawn and washed with PBS. It was centrifuged at 1500 rpm at room temperature for 10 min, the pellets were resuspended in RPMI medium and the cells were counted.
as §1

The subject of another data set is E. coli MG 1655. Conditions: MG 1655, 24 h.
A further data set has as its system B. subtilis MTCC 14416. The note with it: MTCC 14416, 24 h.
In data set [1] the test system is V. cholerae (clinical isolates). The note with it: 24 h.
Procedure: (§2) Bacterial cultures were grown in Luria Bertani broth (Hi-media) by overnight incubation at 37°C with constant shaking. Microbial cultures having 10^6 CFU/ml were made from OD 0.6 culture. Respective peptide stock concentration (1mg/ml) were prepared in sterile water and diluted in LB broth to make concentrations ranging from 1–200 μg/ml. Bacterial culture (50 μl) was treated with 50 μl of individual peptide amide solution of various concentrations and incubated for 24 h at 37°C with constant shaking in a 96 well microtitre plate. […] The minimum inhibitory concentration (MIC) was taken as the dose at which 100% of growth inhibition was observed and was calculated from the graph. MIC was calculated from independent experiments performed in triplicate.
Data set [2] deals with human embryonic kidney (HEK) cells. Format: cell-based. How it is done:
as §1

Another data set concerns S. aureus ATCC 9542. Conditions: ATCC 9542, 24 h.
A further data set concerns B. coagulans ATCC 7050. Conditions: ATCC 7050, 24 h.
The test system of another data set is P. aeruginosa ATCC 27853. Conditions: ATCC 27853, 24 h.

Procedure for B. coagulans ATCC 7050: as §2
Procedure for B. subtilis MTCC 14416: as §2
Procedure for E. coli MG 1655: as §2
Procedure for P. aeruginosa ATCC 27853: as §2
Procedure for S. aureus ATCC 9542: as §2

As a reminder, the MIC is the smallest concentration in the dilution series that meets the test's criterion for growth inhibition. In the case of `CC[C@H](C)[C@@H]1NC(=O)[C@H](CCCCN)NC(=O)[C@@H](NC(=O)[C@H](CC(C)C)NC(=O)[C@@H](NC(=O)[C@H](CCC(N)=O)NC(=O)[C@@H]2CCCN2C(=O)[C@H](CC(C)C)NC(=O)[C@H](Cc2ccccc2)NC(=O)[C@H](CC(N)=O)NC(=O)[C@H](C)NC(=O)[C@H](C)NC(=O)[C@@H](N)CC(C)C)[C@@H](C)CC)CSSC[C@@H](C(N)=O)NC(=O)[C@H](CCCCN)NC(=O)[C@H](CCCNC(=N)N)NC(=O)[C@H](C)NC1=O` [B1CTcu5-LIAG] (H-LAANFLPQILCKIARKC-NH2; disulfide 11-17), the “CC 50” value (with skin cancer cells (A431); in the data set on PBMCs; in data set [2]) was over 100 mg/L in each case. Further, the minimal inhibitory concentration (MIC) was 12.5 mg/L (≈ 6.58 µM) in the data set with E. coli MG 1655; 50 mg/L (≈ 26.3 µM) against B. subtilis MTCC 14416; 12.5 mg/L (≈ 6.58 µM) in [1]; 6.25 mg/L (≈ 3.29 µM) against S. aureus ATCC 9542; 25 mg/L (≈ 13.2 µM) against B. coagulans ATCC 7050; over 100 mg/L with P. aeruginosa ATCC 27853.
With `CC[C@H](C)[C@@H]1NC(=O)[C@H](CCCCN)NC(=O)[C@@H](NC(=O)[C@H](CC(C)C)NC(=O)[C@@H](NC(=O)[C@H](CCC(N)=O)NC(=O)[C@@H]2CCCN2C(=O)[C@H](CC(C)C)NC(=O)[C@H](Cc2ccccc2)NC(=O)[C@H](CC(N)=O)NC(=O)[C@H](C)NC(=O)[C@H](C)NC(=O)[C@H](CC(C)C)NC(=O)CN)[C@@H](C)CC)CSSC[C@@H](C(N)=O)NC(=O)[C@H](CCCCN)NC(=O)[C@H](CCCNC(=N)N)NC(=O)[C@H](C)NC1=O` [B1CTcu5-LIA] (H-GLAANFLPQILCKIARKC-NH2; disulfide 12-18), the minimal inhibitory concentration (MIC) against E. coli MG 1655 was 100 mg/L (≈ 51.1 µM); with B. subtilis MTCC 14416 it was 100 mg/L (≈ 51.1 µM); in data set [1], 50 mg/L (≈ 25.6 µM); against S. aureus ATCC 9542, 50 mg/L (≈ 25.6 µM); against B. coagulans ATCC 7050, 100 mg/L (≈ 51.1 µM); with P. aeruginosa ATCC 27853, over 100 mg/L.
For the molecule `CC[C@H](C)[C@@H]1NC(=O)[C@H](CCCCN)NC(=O)[C@@H](NC(=O)[C@H](CC(C)C)NC(=O)[C@@H](NC(=O)[C@H](CCC(N)=O)NC(=O)[C@@H]2CCCN2C(=O)[C@H](CC(C)C)NC(=O)[C@H](Cc2ccccc2)NC(=O)[C@H](CC(N)=O)NC(=O)[C@H](C)NC(=O)[C@H](C)NC(=O)[C@H](CC(C)C)NC(=O)CNC(=O)[C@H](C)N)[C@@H](C)CC)CSSC[C@@H](C(N)=O)NC(=O)[C@H](CCCCN)NC(=O)[C@H](CCCNC(=N)N)NC(=O)[C@H](C)NC1=O` [B1CTcu5-LI] (H-AGLAANFLPQILCKIARKC-NH2; disulfide 13-19), the MIC is 50 mg/L (≈ 24.7 µM) against E. coli MG 1655; 25 mg/L (≈ 12.3 µM) in data set [1]; 50 mg/L (≈ 24.7 µM) in the data set with S. aureus ATCC 9542; 80 mg/L (≈ 39.5 µM) with B. coagulans ATCC 7050; over 100 mg/L in the data set on P. aeruginosa ATCC 27853.
Consider `CC[C@H](C)[C@H](N)C(=O)N[C@@H](C)C(=O)NCC(=O)N[C@@H](CC(C)C)C(=O)N[C@@H](C)C(=O)N[C@@H](C)C(=O)N[C@@H](CC(N)=O)C(=O)N[C@@H](Cc1ccccc1)C(=O)N[C@@H](CC(C)C)C(=O)N1CCC[C@H]1C(=O)N[C@@H](CCC(N)=O)C(=O)N[C@H](C(=O)N[C@@H](CC(C)C)C(=O)N[C@H]1CSSC[C@@H](C(N)=O)NC(=O)[C@H](CCCCN)NC(=O)[C@H](CCCNC(=N)N)NC(=O)[C@H](C)NC(=O)[C@H]([C@@H](C)CC)NC(=O)[C@H](CCCCN)NC1=O)[C@@H](C)CC` [B1CTcu5-L] (H-IAGLAANFLPQILCKIARKC-NH2; disulfide 14-20), for which the minimum inhibitory concentration (MIC) was 50 mg/L (≈ 23.4 µM) against E. coli MG 1655; 100 mg/L (≈ 46.7 µM) in the data set with B. subtilis MTCC 14416; 25 mg/L (≈ 11.7 µM) in data set [1]; 25 mg/L (≈ 11.7 µM) with S. aureus ATCC 9542; 100 mg/L (≈ 46.7 µM) in the data set with B. coagulans ATCC 7050; over 100 mg/L in the data set on P. aeruginosa ATCC 27853.
`CC[C@H](C)[C@H](NC(=O)[C@H](CCCCN)NC(=O)[C@H](CSCNC(C)=O)NC(=O)[C@H](CC(C)C)NC(=O)[C@@H](NC(=O)[C@H](CCC(N)=O)NC(=O)[C@@H]1CCCN1C(=O)[C@H](CC(C)C)NC(=O)[C@H](Cc1ccccc1)NC(=O)[C@H](CC(N)=O)NC(=O)[C@H](C)NC(=O)[C@H](C)NC(=O)[C@H](CC(C)C)NC(=O)CNC(=O)[C@H](C)NC(=O)[C@@H](NC(=O)[C@@H](N)CC(C)C)[C@@H](C)CC)[C@@H](C)CC)C(=O)N[C@@H](C)C(=O)N[C@@H](CCCNC(=N)N)C(=O)N[C@@H](CCCCN)C(=O)N[C@@H](CS)C(N)=O` [B1CTcu5C (Acm)] (H-LIAGLAANFLPQILC(Acm)KIARKC-NH2): the MIC with E. coli MG 1655 is 12.5 mg/L (≈ 5.37 µM); with B. subtilis MTCC 14416 it was 50 mg/L (≈ 21.5 µM); in [1] it was 50 mg/L (≈ 21.5 µM); in the data set with S. aureus ATCC 9542 it was 50 mg/L (≈ 21.5 µM); against B. coagulans ATCC 7050, 25 mg/L (≈ 10.7 µM); in the data set on P. aeruginosa ATCC 27853, over 100 mg/L.
Turning to `CC[C@H](C)[C@@H]1NC(=O)[C@H](CCCCN)NC(=O)[C@@H](NC(=O)[C@H](CC(C)C)NC(=O)[C@@H](NC(=O)[C@H](CCC(N)=O)NC(=O)[C@@H]2CCCN2C(=O)[C@H](CC(C)C)NC(=O)[C@H](Cc2ccccc2)NC(=O)[C@H](CC(N)=O)NC(=O)[C@H](C)NC(=O)[C@H](C)NC(=O)[C@H](CC(C)C)NC(=O)CNC(=O)[C@H](C)NC(=O)[C@@H](NC(=O)[C@@H](N)Cc2c[nH]cn2)[C@@H](C)CC)[C@@H](C)CC)CSSC[C@@H](C(N)=O)NC(=O)[C@H](CCCCN)NC(=O)[C@H](CCCNC(=N)N)NC(=O)[C@H](C)NC1=O` [B1CTcu5H] (H-HIAGLAANFLPQILCKIARKC-NH2; disulfide 15-21), the “CC 50” value in the data set with skin cancer cells (A431) was over 100 mg/L; in the data set on PBMCs, 90 ± 2.56 mg/L (≈ 39.5 µM); in data set [2], over 100 mg/L. The minimal inhibitory concentration (MIC) against E. coli MG 1655 is 50 mg/L (≈ 22 µM); in the data set with B. subtilis MTCC 14416, 50 mg/L (≈ 22 µM); in data set [1], 25 mg/L (≈ 11 µM); against S. aureus ATCC 9542, over 100 mg/L; in the data set with B. coagulans ATCC 7050 it was 25 mg/L (≈ 11 µM); with P. aeruginosa ATCC 27853 it was over 100 mg/L.
Take `CC[C@@H](C)[C@@H](NC(=O)[C@H](N)CC(C)C)C(=O)N[C@H](C)C(=O)NCC(=O)N[C@H](CC(C)C)C(=O)N[C@H](C)C(=O)N[C@H](C)C(=O)N[C@H](CC(N)=O)C(=O)N[C@H](Cc1ccccc1)C(=O)N[C@H](CC(C)C)C(=O)N1CCC[C@@H]1C(=O)N[C@H](CCC(N)=O)C(=O)N[C@@H](C(=O)N[C@H](CC(C)C)C(=O)N[C@@H]1CSSC[C@H](C(N)=O)NC(=O)[C@@H](CCCCN)NC(=O)[C@@H](CCCNC(=N)N)NC(=O)[C@@H](C)NC(=O)[C@@H]([C@H](C)CC)NC(=O)[C@@H](CCCCN)NC1=O)[C@H](C)CC` [DB1CTcu5] (H-[dL][dI][dA]G[dL][dA][dA][dN][dF][dL][dP][dQ][dI][dL][dC][dK][dI][dA][dR][dK][dC]-NH2; disulfide 15-21): the “CC 50” value with skin cancer cells (A431) was over 100 mg/L; with PBMCs, 71.4 ± 2.3 mg/L (≈ 31.7 µM); in data set [2], over 100 mg/L. In addition, the minimum inhibitory concentration (MIC) against E. coli MG 1655 was 25 mg/L (≈ 11.1 µM); against B. subtilis MTCC 14416, 50 mg/L (≈ 22.2 µM); with S. aureus ATCC 9542, 50 mg/L (≈ 22.2 µM); against B. coagulans ATCC 7050 it was 15 mg/L (≈ 6.66 µM); in the data set with P. aeruginosa ATCC 27853, over 100 mg/L.
For `CC[C@H](C)[C@H](NC(=O)[C@H](CCCCN)NC(=O)[C@H](CS)NC(=O)[C@H](CC(C)C)NC(=O)[C@@H](NC(=O)[C@H](CCC(N)=O)NC(=O)[C@@H]1CCCN1C(=O)[C@H](CC(C)C)NC(=O)[C@H](Cc1ccccc1)NC(=O)[C@H](CC(N)=O)NC(=O)[C@H](C)NC(=O)[C@H](C)NC(=O)[C@H](CC(C)C)NC(=O)CNC(=O)[C@H](C)NC(=O)[C@@H](NC(=O)[C@@H](N)CC(C)C)[C@@H](C)CC)[C@@H](C)CC)C(=O)N[C@@H](C)C(=O)N[C@@H](CCCNC(=N)N)C(=O)N[C@@H](CCCCN)C(=O)N[C@@H](CS)C(N)=O` [Linear B1CTcu5] (H-LIAGLAANFLPQILCKIARKC-NH2), the MIC is 25 mg/L (≈ 11.1 µM) in the data set with E. coli MG 1655; 50 mg/L (≈ 22.2 µM) with B. subtilis MTCC 14416; 25 mg/L (≈ 11.1 µM) in [1]; over 100 mg/L with S. aureus ATCC 9542; 12.5 mg/L (≈ 5.54 µM) in the data set with B. coagulans ATCC 7050; over 100 mg/L against P. aeruginosa ATCC 27853.
For LIAGLAANFLPQILCKIARK-NH2 [B1CTcu5-C], the MIC in the data set on E. coli MG 1655 is 25 mg/L; against B. subtilis MTCC 14416, 50 mg/L; in [1] it was 50 mg/L; against S. aureus ATCC 9542, 50 mg/L; against B. coagulans ATCC 7050 it was 25 mg/L; in the data set on P. aeruginosa ATCC 27853, over 100 mg/L.
